According to patent US20200093789A1, “Cancer Treatment with a CXCL12 Signaling Inhibitor and an Immune Checkpoint Inhibitor” (The General Hospital Corporation, priority 2017, published 2020):
Entries after “also recorded” stand apart in the source; their conditions may differ.

Legend:
[1] = system: intratumoral FoxP3+ regulatory T cells (Treg); conditions: literature statement; cited from earlier work
[2] = system: ID8 tumor bearing mice; assay: Survival of ID8 tumor bearing mice (AMD3100/checkpoint inhibitor combination study); format: in vivo, C57BL/6 mice; conditions: vs saline treated control; AMD3100 3 mg/kg IP every other day for three weeks alternating with αPD-1 or αPD-L1 200 μg/mouse IP; Log-rank test
Method: Luciferase-expressing ID-8 ovarian cancer cells (3×10^6 cells) were injected into C57BL/6 female mice (30/group). […] Starting three weeks post tumor inoculation, AMD3100 (3 mg/kg) was injected IP every other day for three weeks alternating with αPD-1 or αPD-L1 (200 μg/mouse) by IP injection.
Tissue Culture: The ID8 ovarian cancer cells, a kind gift from Kathy Roby (University of Kansas Medical Center, Kansas City, Kans.), were transfected with luciferase lentiviral vector and a clone stably expressing luciferase was recovered, here named Luc-ID8. Cells were maintained at 37° C. in DMEM with 2 mmol/L L-glutamine, 10 units/ml penicillin, 10 μg/ml streptomycin, and 10% fetal bovine serum in a humidified atmosphere with 5% CO2. Cells were cultured until 80% confluent, then harvested with Trypsin EDTA (Mediatech) for animal injections.
Treatment Agents: AMD3100 was purchased from Abcam. 10 mg power was dissolved in 16.7 ml saline to achieve concentration of 0.6 mg/ml and 100 μl was injected for each treatment. Anti-mouse PD-1 and anti-mouse PD-L1 were purchased from Biocell. […]

[3] = system: tumor-infiltrated lymphocytes; assay: Flow cytometry immune profiling of tumor-infiltrating lymphocytes from ID8 tumors a week after the last treatment; format: in vivo, C57BL/6 mice; conditions: vs saline control
Method: Luciferase-expressing ID-8 ovarian cancer cells (3×10^6 cells) were injected into C57BL/6 female mice (30/group). Tumor initiation was confirmed 20 days later by IVIS imaging, and tumor-bearing animals were randomized into the treatment groups indicated in Table 2. Starting three weeks post tumor inoculation, AMD3100 (3 mg/kg) was injected IP every other day for three weeks alternating with αPD-1 or αPD-L1 (200 μg/mouse) by IP injection. 3 mg/kg AMD3100 is the murine equivalent of the approved human dose of 0.24 mg/kg based on allometric scaling.
Some animals from each treatment group were euthanized by i.p. administration of Ketamine (9 mg/ml in saline) and Xylazine (0.9 mg/ml in saline) a week after the last treatment for evaluation of tumor-infiltrating lymphocytes. Tumors were harvested and processed for immune profiling.
Flow cytometry: Tumors were mechanically disaggregated using razor blades, and cells were further separated by incubation at 37° C. for 2 hours in RPMI 1640 with collagenase type IV (2 mg/ml, Sigma), hyaluronidase (0.1 mg/ml, Sigma), and BSA (2 mg/ml, Sigma). Cell suspensions were passed through 100 μm filters to remove any remaining aggregates. Cells were washed with staining buffer (Biolegend) and stained with conjugated antibodies. All live cells were determined by the LIVE/DEAD® staining (ThermoFisher). Intracellular protein detection was realized by fixation/permeabilization reagents from BioLegend or eBioscience. Flow cytometry were performed using BD LSRFortessa X-20 (BD Biosciences) and data were analyzed by FlowJo V10.
Assessment of Results: Prism 6.0 software (GraphPad Software) was used for all statistical analyses. Statistical differences between three or more experimental groups were analyzed using Two-Way ANOVA, followed by Tukey's multiple comparison tests or Student T tests. Survival was analyzed with the Log-rank test.

[4] = percentage of total CD8+ T cells in tumors

For `c1cc(CN2CCCNCCNCCCNCC2)ccc1CN1CCCNCCNCCCNCC1` [AMD3100, AMD3100 (plerixafor)], the “levels of intratumoral FoxP3+ regulatory T cells (Treg)” value [1] is given as “can be reduced”, the “survival time of ID8 tumor bearing mice” value [2] is given as “significantly extended” and the “proportions of CD40L+IL-2+ cells in CD4+FoxP3+CD25− population (helper-like T cells)” value ([3]; in tumors) is given as “significantly increased; also recorded: promoted replacement of Tregs by helper T cells”. For the same compound, the “proportions of intratumor Tregs” value ([3]; percent of total CD4+ T cells in tumors) was “significantly reduced; also recorded: decreased”, the “IFN-γ expression in intratumor CD8+ T cells” value [3, 4] was “significantly increased; also recorded: enhanced” and the “intratumor CD8+ memory T cells (CD27+CD44+ population in TILs)” value [3, 4] was “significantly increased”.
